Patent publication US20240293413A1, “COMPOUND AND METHOD FOR TREATING CHEMOTHERAPY-RELATED GASTROINTESTINAL SIDE EFFECTS” (ONQUALITY PHARMACEUTICALS CHINA LTD., priority 2021, published 2024)

Columns and labels:
Type in all cases: in vivo
[1] = test system: diarrhea caused by a chemotherapeutic agent in Balb/c mice; assay: Examples 382-405 (Table 7): various administration modes of the CDK inhibitor, relief of diarrhea caused by a chemotherapeutic agent
Outline: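 Balb/c mice (10 per group) received a CDK inhibitor by oral gavage, intraperitoneal, intramuscular or topical (shaved abdomen) dosing, followed by a chemotherapeutic agent. Vehicle and chemotherapy-only groups served as controls. Diarrhea was graded daily.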

[2] = test system: Chemotherapeutic agent-caused diarrhea models of Balb/c mice; assay: Examples 1-229 (Table 3): oral CDK inhibitor, relief of diarrhea caused by a chemotherapeutic agent;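 also: percent of treated mice whose diarrhea grade fell below chemotherapy-group average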
[3] = test system: diarrhea caused by a chemotherapeutic agent in Balb/c mice; assay: Examples 343-381 (Table 6): oral versus intravenous CDK inhibitor, relief of diarrhea caused by a chemotherapeutic agent;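 as to Relative remission rate: percent of treated mice whose diarrhea grade fell below chemotherapy-group average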
Outline: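 Balb/c mice (10 per group) received the CDK inhibitor orally or by tail-vein injection, or vehicle, followed by a chemotherapeutic agent or its solvent. Diarrhea grade was scored daily.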

With `CN1CCN(c2ccc(Nc3ncc4cc5n(c4n3)C3(CCCCC3)CNC5=O)nc2)CC1` [Trilaciclib (G1T28), Trilaciclib] the “Relative remission rate of other administration mode” value ([1]; Example 395, Carboplatin (CBP) oral administration 200 mg/kg single, CDK inhibitor local administration 100 mg/kg single, 24 h before, cycle 10 days) was 20%, the “Relative remission rate of oral administration” value ([1]; Example 395, Carboplatin (CBP) oral administration 200 mg/kg single, CDK inhibitor oral 100 mg/kg single, 24 h before, cycle 10 days) was 60% and the “Relative remission rate of other administration mode” value ([1]; Example 402, Gemcitabine (GEM) intramuscular injection 120 mg/kg single, CDK inhibitor intramuscular injection 50 mg/kg single, 24 h before, cycle 8 days) was 10%. For the same molecule, the “Relative remission rate of oral administration” value ([1]; Example 402, Gemcitabine (GEM) intramuscular injection 120 mg/kg single, CDK inhibitor oral 50 mg/kg single, 24 h before, cycle 8 days) was 40%, the “Relative remission rate of other administration mode” value ([1]; Example 404, Gemcitabine and carboplatin intraperitoneal injection 120 (G) 100 (C) mg/kg single, CDK inhibitor intramuscular injection 100 mg/kg single, 12 h before, cycle 8 days) was 20% and the “Relative remission rate of oral administration” value ([1]; Example 404, Gemcitabine and carboplatin intraperitoneal injection 120 (G) 100 (C) mg/kg single, CDK inhibitor oral 150 mg/kg single, 12 h before, cycle 8 days) was 60%. For the same molecule, the “Relative remission rate of other administration mode” value ([1]; Example 405, Gemcitabine and carboplatin intraperitoneal injection 120 (G) 100 (C) mg/kg single, CDK inhibitor intramuscular injection 100 mg/kg single, 24 h before, cycle 8 days) was 10%, the “Relative remission rate of oral administration” value ([1]; Example 405, Gemcitabine and carboplatin intraperitoneal injection 120 (G) 100 (C) mg/kg single, CDK inhibitor oral 150 mg/kg single, 24 h before, cycle 8 days) was 50% and the “relief of diarrhea by oral, injection and local administration” value ([1]; diarrhea caused by docetaxel, carboplatin, gemcitabine, and gemcitabine plus carboplatin, under certain conditions, effect of oral administration most significant) was “can relieve diarrhea”. For the same molecule, the “Relative remission rate (%)” value ([2]; Example 49, Oxaliplatin intraperitoneal injection 20 mg/kg single, CDK inhibitor oral 100 mg/kg single 0.5 h before, cycle 8 days) was 60%, the “Relative remission rate (%)” value ([2]; Example 50, Oxaliplatin intraperitoneal injection 20 mg/kg single, CDK inhibitor oral 100 mg/kg single 1 h before, cycle 8 days) was 50% and the “Relative remission rate (%)” value ([2]; Example 51, Oxaliplatin intraperitoneal injection 20 mg/kg single, CDK inhibitor oral 100 mg/kg single 2 h before, cycle 8 days) was 40%. For the same molecule, the “Relative remission rate (%)” value ([2]; Example 52, Oxaliplatin intraperitoneal injection 20 mg/kg single, CDK inhibitor oral 100 mg/kg single 3 h before, cycle 8 days) was 60%, the “Relative remission rate (%)” value ([2]; Example 53, Oxaliplatin intraperitoneal injection 20 mg/kg single, CDK inhibitor oral 100 mg/kg single 4 h before, cycle 8 days) was 50% and the “Relative remission rate (%)” value ([2]; Example 54, Oxaliplatin intraperitoneal injection 20 mg/kg single, CDK inhibitor oral 100 mg/kg single 5 h before, cycle 8 days) was 30%. For the same molecule, the “Relative remission rate (%)” value ([2]; Example 55, Oxaliplatin intraperitoneal injection 20 mg/kg single, CDK inhibitor oral 100 mg/kg single 6 h before, cycle 8 days) was 80%, the “Relative remission rate (%)” value ([2]; Example 56, Oxaliplatin intraperitoneal injection 20 mg/kg single, CDK inhibitor oral 100 mg/kg single 7 h before, cycle 8 days) was 60% and the “Relative remission rate (%)” value ([2]; Example 57, Oxaliplatin intraperitoneal injection 20 mg/kg single, CDK inhibitor oral 100 mg/kg single 8 h before, cycle 8 days) was 60%. For the same molecule, the “Relative remission rate (%)” value ([2]; Example 58, Oxaliplatin intraperitoneal injection 20 mg/kg single, CDK inhibitor oral 100 mg/kg single 9 h before, cycle 8 days) was 80%, the “Relative remission rate (%)” value ([2]; Example 59, Oxaliplatin intraperitoneal injection 20 mg/kg single, CDK inhibitor oral 100 mg/kg single 10 h before, cycle 8 days) was 70% and the “Relative remission rate (%)” value ([2]; Example 60, Oxaliplatin intraperitoneal injection 20 mg/kg single, CDK inhibitor oral 100 mg/kg single 11 h before, cycle 8 days) was 70%. For the same molecule, the “Relative remission rate (%)” value ([2]; Example 61, Oxaliplatin intraperitoneal injection 20 mg/kg single, CDK inhibitor oral 100 mg/kg single 12 h before, cycle 8 days) was 50%, the “Relative remission rate (%)” value ([2]; Example 62, Oxaliplatin intraperitoneal injection 20 mg/kg single, CDK inhibitor oral 100 mg/kg single 14 h before, cycle 8 days) was 60% and the “Relative remission rate (%)” value ([2]; Example 63, Oxaliplatin intraperitoneal injection 20 mg/kg single, CDK inhibitor oral 100 mg/kg single 16 h before, cycle 8 days) was 80%. The “Relative remission rate (%)” value ([2]; Example 64, Oxaliplatin intraperitoneal injection 20 mg/kg single, CDK inhibitor oral 100 mg/kg single 18 h before, cycle 8 days) was 80%, the “Relative remission rate (%)” value ([2]; Example 65, Oxaliplatin intraperitoneal injection 20 mg/kg single, CDK inhibitor oral 100 mg/kg single 20 h before, cycle 8 days) was 70% and the “Relative remission rate (%)” value ([2]; Example 66, Oxaliplatin intraperitoneal injection 20 mg/kg single, CDK inhibitor oral 100 mg/kg single 22 h before, cycle 8 days) was 50%. The “Relative remission rate (%)” value ([2]; Example 67, Oxaliplatin intraperitoneal injection 20 mg/kg single, CDK inhibitor oral 100 mg/kg single 24 h before, cycle 8 days) was 50%, the “Relative remission rate (%)” value ([2]; Example 68, Oxaliplatin intraperitoneal injection 20 mg/kg single, CDK inhibitor oral 100 mg/kg single 48 h before, cycle 8 days) was 0% and the “Relative remission rate (%)” value ([2]; Example 127, Irinotecan (CPT-11) intramuscular injection 240 mg/kg single, CDK inhibitor oral 50 mg/kg single 1 h before, cycle 7 days) was 70%. For the same molecule, the “Relative remission rate (%)” value ([2]; Example 170, Gemcitabine (GEM) intraperitoneal injection 120 mg/kg single, CDK inhibitor oral 60 mg/kg single 0.5 h before, cycle 8 days) was 50%, the “Relative remission rate (%)” value ([2]; Example 171, Gemcitabine (GEM) intraperitoneal injection 120 mg/kg single, CDK inhibitor oral 60 mg/kg single 1 h before, cycle 8 days) was 50% and the “Relative remission rate (%)” value ([2]; Example 172, Gemcitabine (GEM) intraperitoneal injection 120 mg/kg single, CDK inhibitor oral 60 mg/kg single 2 h before, cycle 8 days) was 40%. The “Relative remission rate (%)” value ([2]; Example 173, Gemcitabine (GEM) intraperitoneal injection 120 mg/kg single, CDK inhibitor oral 60 mg/kg single 4 h before, cycle 8 days) was 60%, the “Relative remission rate (%)” value ([2]; Example 174, Gemcitabine (GEM) intraperitoneal injection 120 mg/kg single, CDK inhibitor oral 60 mg/kg single 6 h before, cycle 8 days) was 50% and the “Relative remission rate (%)” value ([2]; Example 175, Gemcitabine (GEM) intraperitoneal injection 120 mg/kg single, CDK inhibitor oral 60 mg/kg single 8 h before, cycle 8 days) was 50%. For the same molecule, the “Relative remission rate (%)” value ([2]; Example 176, Gemcitabine (GEM) intraperitoneal injection 120 mg/kg single, CDK inhibitor oral 60 mg/kg single 10 h before, cycle 8 days) was 50%, the “Relative remission rate (%)” value ([2]; Example 177, Gemcitabine (GEM) intraperitoneal injection 120 mg/kg single, CDK inhibitor oral 60 mg/kg single 12 h before, cycle 8 days) was 40% and the “Relative remission rate (%)” value ([2]; Example 178, Gemcitabine (GEM) intraperitoneal injection 120 mg/kg single, CDK inhibitor oral 60 mg/kg single 14 h before, cycle 8 days) was 60%. For the same molecule, the “Relative remission rate (%)” value ([2]; Example 193, Gemcitabine (GEM) oral administration 300 mg/kg single, CDK inhibitor oral 200 mg/kg single, 2 h before, 8 days) was 60%, the “Relative remission rate (%)” value ([2]; Example 227, Topotecan intravenous injection 20 mg/kg single, CDK inhibitor oral 100 mg/kg single, 0.5 h before, 14 days) was 70% and the Relative remission rate ([3]; Example 348, Etoposide intraperitoneal injection 75 mg/kg single, CDK inhibitor intravenous injection 100 mg/kg single, 24 h before, cycle 8 days) was 10%. For the same molecule, the Relative remission rate ([3]; Example 348, Etoposide intraperitoneal injection 75 mg/kg single, CDK inhibitor oral 100 mg/kg, 24 h before, cycle 8 days) was 60%, the Relative remission rate ([3]; Example 365, Carboplatin (CBP) intravenous injection 120 mg/kg single, CDK inhibitor intravenous injection 100 mg/kg single, 24 h before, cycle 10 days) was 10% and the Relative remission rate ([3]; Example 365, Carboplatin (CBP) intravenous injection 120 mg/kg single, CDK inhibitor oral 100 mg/kg single, 24 h before, cycle 10 days) was 30%. For the same molecule, the Relative remission rate ([3]; Example 367, Topotecan (TP) intraperitoneal injection 10 mg/kg single, CDK inhibitor intravenous injection 200 mg/kg single, 24 h before, cycle 10 days) was 10%, the Relative remission rate ([3]; Example 367, Topotecan (TP) intraperitoneal injection 10 mg/kg single, CDK inhibitor oral 100 mg/kg single, 24 h before, cycle 10 days) was 30% and the Relative remission rate ([3]; Example 377, Gemcitabine (GEM) intramuscular injection 120 mg/kg single, CDK inhibitor intravenous injection 50 mg/kg single, 1 h before, cycle 8 days) was 10%. The Relative remission rate ([3]; Example 377, Gemcitabine (GEM) intramuscular injection 120 mg/kg single, CDK inhibitor oral 50 mg/kg single, 1 h before, cycle 8 days) was 60%, the Relative remission rate ([3]; Example 380, Gemcitabine and carboplatin intravenous injection 120 (G) 100 (C) mg/kg single, CDK inhibitor intravenous injection 100 mg/kg single, 0.5 h before, cycle 8 days) was 20% and the Relative remission rate ([3]; Example 380, Gemcitabine and carboplatin intravenous injection 120 (G) 100 (C) mg/kg single, CDK inhibitor oral 100 mg/kg single, 0.5 h before, cycle 8 days) was 60%. The Relative remission rate ([3]; Example 381, Gemcitabine and carboplatin intravenous injection 120 (G) 100 (C) mg/kg single, CDK inhibitor intravenous injection 100 mg/kg single, 24 h before, cycle 8 days) was 10%, the Relative remission rate ([3]; Example 381, Gemcitabine and carboplatin intravenous injection 120 (G) 100 (C) mg/kg single, CDK inhibitor oral 100 mg/kg single, 24 h before, cycle 8 days) was 40% and the “relief of diarrhea by oral administration and injection administration” value ([3]; diarrhea caused by etoposide, etoposide in combination with cisplatin, carboplatin, gemcitabine, gemcitabine in combination with carboplatin, and topotecan, oral administration has the most significant effect) was “effectively relieve diarrhea”.
